{"source": "patent US6590140B1", "about": "“Metal-regulated transporters and uses therefor” (Trustees of Dartmouth College, priority 1996, dated 2003)", "molecular_target": "T1, IRT1 (Arabidopsis thaliana, UniProt Q38856)", "T1 construct": "contain a single 1017 bp open reading frame capable of encoding a polypeptide of 339 amino acids; expressed in transfected cells; host or cells: S. cerevisiae fet3 fet4 strain DEY1453 carrying pIRT-1 (pFL61 library vector, phosphoglycerate kinase promoter)", "T1 sequence (Q38856 9-347 limits assumed)": "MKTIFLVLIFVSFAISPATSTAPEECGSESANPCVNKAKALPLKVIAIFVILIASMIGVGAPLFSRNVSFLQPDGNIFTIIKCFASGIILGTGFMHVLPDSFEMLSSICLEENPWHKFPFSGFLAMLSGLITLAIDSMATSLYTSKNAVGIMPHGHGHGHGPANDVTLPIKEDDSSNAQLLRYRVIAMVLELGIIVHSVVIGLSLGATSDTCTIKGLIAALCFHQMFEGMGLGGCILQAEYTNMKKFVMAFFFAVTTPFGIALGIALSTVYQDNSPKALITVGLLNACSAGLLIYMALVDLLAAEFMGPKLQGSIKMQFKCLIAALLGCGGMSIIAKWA", "assay": "55Fe uptake in fet3 fet4 yeast expressing IRT1", "assay_type": "cell-based", "conditions": "for effect on the rate of iron uptake by IRT1: 10 μM metal, 10 times the radiolabeled iron, Fe(II) with 1 mM ascorbate", "experimental": "Iron uptake assays using ^55FeCl3 (Amersham, Arlington Heights, Ill.) were performed as described (Eide, D. et al. (1992) J. Biol. Chem. 267: 20774-20781) except that MGN (10 mM Mes/2% glucose/1 mM nitrilotriacetic acid, pH 6.1) was used for the assay buffer. Where noted, 1 mM sodium ascorbate was added to reduce Fe(III) to Fe(II). Stock solutions of the chloride salt of each metal (except for iron) were prepared in water at a concentration of 100 mM and diluted into MGN to a final concentration of 10 μM before addition of the cells. The ^56FeCl3 stock was 50 mM prepared in 0.1 M HCl. The statistical significance of differences in values relative to controls was determined using STATVIEW software (Abacus Concepts, Berkeley, Calif.). Data was subjected to one-way analysis of variance (ANOVA) followed by a Scheffe's test.\nTo determine if IRT1 encodes an iron transporter, ^55Fe uptake rates were examined in a fet3 fet4 strain expressing IRT1. Little or no uptake was detected at 0° C. for either IRT1-expressing or untransformed control cells (FIG. 2A). The fet3 fet4 mutant strain DEY1453 (circles) and DEY1453 transformed with pIRT-1 (squares) were grown to exponential phase in SD glucose and assayed for iron uptake with ^55Fe. (A) Time- and temperature-dependence of iron accumulation assayed in MGN with 1 mM ascorbate and 5 μM ^55FeCl3 assayed at 30° C. (open symbols) or 0° C. (solid symbols). The dashed line marked with open triangles represents the IRT1-dependent accumulation, i.e., the accumulation of iron by the untransformed strain at 30° C. subtracted from the accumulation of the pIRT-1-bearing strain at 30° C. […] The IRT1-dependent rate was ≈3-fold higher than the control uptake rate. No increased uptake was apparent in strains bearing either of two randomly selected clones from the library, indicating the dependence of these uptake effects on expression of IRT1. The iron uptake activity dependent on IRT1 expression was also concentration-dependent and saturable (FIG. 2B). The same strains as in A were assayed for iron uptake rates for 10 min over a range of concentrations. The dashed lines marked with open triangles represents the IRT1-dependent uptake rate, i.e., background uptake rate of the untransformed strain subtracted from the corresponding rate of the pIRT-1-bearing strains. (Inset) Eadie-Hofstee plot of the IRT1-dependent uptake data. Each point represents the mean of three experiments each performed in duplicate. The standard deviation within each experiment was less that 20% of the corresponding mean.\nThe experiments described above were conducted with iron supplied as Fe(II), i.e., in the presence of ascorbate, an agent capable of reducing Fe(III) to Fe(II). To determine if Fe(II) is the preferred substrate over Fe(III), assays were carried out in the absence of ascorbate where iron is supplied to the cells as Fe(III). […] The fet3 fet4 mutant strain DEY1453 and DEY1453 transformed with pIRT-1 were grown to exponential phase is SD glucose and assayed for iron uptake with 1 μM FeCl3 in MGN for 10 min. The values shown are the IRT1-dependent rates, i.e., the untransformed strain control values were subtracted from the DEY1453 pIRT-1 values and represent the means of four replicates. The asterisks indicate significant of differences from the control values (P<0.05). Assays were performed in the absence [Fe(III)] or presence [Fe(II)] of 1 mM ascorbate. […] Although yeast are capable of reducing Fe(III) to Fe(II) through the action of plasma membrane Fe(III) reductases, this rate of cell-mediated reduction is slower than reduction by ascorbate and therefore may be rate-limiting for IRT1-dependent uptake. To assess if metals other than iron are potential substrates for IRT1, several transition metals were tested for their ability to inhibit accumulation of iron in IRT1-expressing cells (FIG. 3B). Assays were conducted in the absence (−) or presence of 10 μM metal. […]", "data": [{"smiles": "[Cl][Fe]([Cl])[Cl]", "note": "[Fe(III)]", "values": [{"measurement": "iron uptake rate in the absence of ascorbate relative to rate with ascorbate", "setting": "1 μM FeCl3 in MGN, 10 min, iron supplied as Fe(III)", "value": "≈ 10%"}]}, {"smiles": "[Cl-].[Cl-].[Co+2]", "note": "[Co]", "values": [{"measurement": "inhibition of IRT1-mediated Fe(II) uptake in yeast (summary statement)", "value": "inhibitors of IRT1-mediated Fe(II) uptake"}, {"measurement": "effect on the rate of iron uptake by IRT1", "setting": "10 min", "value": "no significant effect"}]}, {"smiles": "[Fe+2]", "note": "[Fe(II)]", "values": [{"measurement": "IRT1-dependent uptake rate relative to control uptake rate", "setting": "5 μM 55FeCl3, 1 mM ascorbate, 30° C., first 10 min", "value": "≈ 3 fold"}, {"measurement": "effect on the rate of iron uptake by IRT1", "setting": "10 min", "value": "potent inhibitors"}, {"measurement": "Vmax of IRT1-mediated iron uptake", "setting": "iron supplied as Fe(II) (1 mM ascorbate), 10 min, DEY1453 pIRT-1 minus untransformed strain", "value": "1.9±0.4 pmol per min per 10^6 cells"}, {"measurement": "Km", "setting": "iron supplied as Fe(II) (1 mM ascorbate), 10 min, DEY1453 pIRT-1 minus untransformed strain, read-out: apparent Km of IRT1-mediated iron uptake", "value": "6 ± 1", "unit": "µM"}]}, {"smiles": "[Zn+2]", "note": "[zinc]", "values": [{"measurement": "inhibition of IRT1-mediated Fe(II) uptake in yeast (summary statement)", "value": "inhibitors of IRT1-mediated Fe(II) uptake"}, {"measurement": "effect on the rate of iron uptake by IRT1", "setting": "10 min", "value": "no significant effect"}]}, {"smiles": "[Cl][Mn][Cl]", "note": "[Mn]", "values": [{"measurement": "inhibition of IRT1-mediated Fe(II) uptake in yeast (summary statement)", "value": "inhibitors of IRT1-mediated Fe(II) uptake"}, {"measurement": "effect on the rate of iron uptake by IRT1", "setting": "10 min", "value": "no significant effect"}]}, {"smiles": "[Cl][Ni][Cl]", "note": "[Ni]", "values": [{"measurement": "effect on the rate of iron uptake by IRT1", "setting": "10 min", "value": "no significant effect"}]}, {"smiles": "[Cl][Cu][Cl]", "note": "[Cu]", "values": [{"measurement": "effect on the rate of iron uptake by IRT1", "setting": "10 min", "value": "no significant effect"}]}]}
